Test results reported in patent publication USRE37886E1, “1-(1,2-Disubstituted piperidinyl)-4-substituted piperazine derivatives” (Janssen Pharmaceuticals, N.V., priority 1995, dated 2002).
pIC50: −log10 of the molar value.

Experiments:
[1] = test system: substance P induced plasma extravasation; test: Antagonism of substance P induced plasma extravasation in guinea-pigs; assay type: in vivo; conditions: lowest active dose, female guinea-pigs; for LAD nose: compound 1 hour prior to substance P (2 mg/kg, femoral artery), blue colouring of nose 10 minutes after challenge; for LAD conjunctiva / LAD forepaws / LAD trachea / LAD urinary bladder: compound 1 hour prior to substance P; for LAD conjunctiva: blue colouring of conjunctiva 10 minutes after challenge; for LAD forepaws: blue colouring of forepaws 10 minutes after challenge; for LAD trachea: blue colouring of trachea 30 minutes after challenge; for LAD urinary bladder: blue colouring of urinary bladder 30 minutes after challenge
Description: (§1) The compounds of the present invention are potent inhibitors of neurokinin-mediated effects, in particular those mediated via the NK1 receptor, and may therefore be described as tachykinin antagonists, especially as substance P antagonists, as indicated in vitro by the antagonism of substance P induced relaxation of pig coronary arteries which is described hereinafter. The binding affinity of the present compounds for the human, guinea-pig and gerbil neurokinin receptors may be determined in vitro in a receptor binding test using ^3H-substance-P as radioligand. The subject compounds also show substance-P antagonistic activity in vivo as may be evidenced by, for instance, the antagonism of substance P-induced plasma extravasation in guinea-pigs, or the antagonism of drug-induced emesis in ferrets (Watson et al., Br. J. Pharmacol. 115, 84-94, 1995).
Antagonism of substance P induced plasma extravasation in guinea-pigs
Plasma extravasation was induced by injection of substance P (2 mg/kg) in the femoral artery of female guinea-pigs. Evans Blue dye (30 mg/kg) was injected simultaneously. The test compound or solvent was administered 1 hour prior to substance P injection. 10 minutes after challenge, the aminals were checked for blue colouring (a direct measure for plasma extravasation) of the nose, the forepaws, and the conjectiva. 30 minutes after challenge, the animals were sacrificed by CO2 gas inhalation and checked for blue colouring of the trachea and the urinary bladder. […]

[2] = test system: substance-P induced relaxation of the pig coronary arteries; test: Antagonism of substance-P induced relaxation of the pig coronary arteries; assay type: cell-based; conditions: concentration at which 50% of the response to 10^−9 M substance P was inhibited; 30 minutes incubation; prostaglandin F2a precontracted segments
Description: as §1
Antagonism of substance-P induced relaxation of the pig coronary arteries
Segments of coronary artieries taken from pigs (killed by injection of an overdose of sodium pentobarbital) were inverted and mounted for recordign of isometric tension in organ baths (volume 20 ml) with the endothelium at the outside. The preparations were bathed in Krebs-Henseleit solution. The solution was kept at 37° C. and gassed with a mixture of O2/CO2 (95/5). After stabilisation of the preparations, prostaglandin F2a (10^−5 M) was administered to induce a contraction. This was repeated until contractivle responses became stable. Then prostaglandin F2a was again administered and substance P(3×10^−10 M and 10^−9 M cumulatively) was added. Substance P induced endothelium dependent relaxations. After washing away the agonists, a known concentratin of a compound of formula (I) was added. After an incubation period of 30 minutes, prostaglandin F2a ([…]) and the same concentrations of sbustance P as described above were again administered in the presence of the compound to be tested. Relaxations caused by substance P were expressed as relaxations under control conditions, and percent inhibition of the response to […] substance P was taken as a measure of the antagonistic activity of the compound to be tested. Table 6 lists the IC50 values (concentration at which 50% of the response to […] substance P was inhibited by the test compound) for the tested compounds.

| Structure (SMILES) | LAD nose [1] [mg/kg] | LAD conjunctiva [1] [mg/kg] | LAD forepaws [1] [mg/kg] | LAD trachea [1] [mg/kg] | LAD urinary bladder [1] [mg/kg] | pIC50 [2] |
| --- | --- | --- | --- | --- | --- | --- |
| O=C(C(c1ccccc1)N1CCN(C2CCN(C(=O)c3cc(C(F)(F)F)cc(C(F)(F)F)c3)C(Cc3ccccc3)C2)CC1)N1CCCC1 (mixture of isomers) [Compound 46] | 0.63 | 0.63 | 0.63 | >40 | 0.63 | 9.38 |
| O=C(C(c1ccccc1)N1CCN(C2CCN(C(=O)c3cc(C(F)(F)F)cc(C(F)(F)F)c3)C(Cc3ccccc3)C2)CC1)N1CCCC1 (mixture of isomers) [Compound 52] | 0.63 | 2.50 | 0.63 | 10.0 | 10.0 | 8.96 |
| CCOCCn1c(CN2CCN(C3CCN(C(=O)c4cc(C(F)(F)F)cc(C(F)(F)F)c4)C(Cc4ccccc4)C3)CC2)nc2cccnc21 (racemic) [Compound 25] | 2.50 | 10.0 | 2.50 | >40 | >40 | 9.10 |
| O=C(CN1CCN(C2CCN(C(=O)c3cc(C(F)(F)F)cc(C(F)(F)F)c3)C(Cc3ccccc3)C2)CC1)Nc1c(Cl)cccc1Cl (racemic) [Compound 45] | 0.63 | 0.63 | 0.63 | >40 | 2.50 | 9.82 |
| COc1ccccc1N1CCN(C2CCN(C(=O)c3cc(C(F)(F)F)cc(C(F)(F)F)c3)C(Cc3ccccc3)C2)CC1 (racemic) [Compound 56] | 10.0 | 10.0 | 10.0 | 40.0 | 2.50 | 8.49 |
| Cc1cccc(C)c1NC(=O)CN1CCN(C2CCN(C(=O)c3cc(C(F)(F)F)cc(C(F)(F)F)c3)C(Cc3ccccc3)C2)CC1 (racemic) [Compound 59] | 2.50 | 2.50 | 2.50 | 5.00 | 5.00 | 8.92 |
| O=C(CN1CCN(C2CCN(C(=O)c3cc(C(F)(F)F)cc(C(F)(F)F)c3)C(Cc3ccccc3)C2)CC1)N1Cc2ccccc2C1 (racemic) [Compound 122] |  |  |  |  |  | 8.77 |
| Cc1cccc(C)c1NC(=O)CN1CCN(C2CCN(C(=O)c3cc(C(F)(F)F)cc(C(F)(F)F)c3)C(Cc3ccccc3)C2)CC1 (single isomer, unassigned) [Compound 124] |  |  |  |  |  | 10.22 |
| Cc1cc(C)cc(C(=O)N2CCC(N3CCN(CC(=O)Nc4c(C)cccc4C)CC3)CC2Cc2ccccc2)c1 (centres unmarked) [Compound 5] |  |  |  |  |  | 8.34 |
| O=C(c1cc(C(F)(F)F)cc(C(F)(F)F)c1)N1CCC(N2CCN(CC=Cc3ccccc3)CC2)CC1Cc1ccccc1 (centres unmarked) [Compound 28] |  |  |  |  |  | 7.88 |
| O=C(c1cc(C(F)(F)F)cc(C(F)(F)F)c1)N1CCC(N2CCN(CC=Cc3ccccc3)CC2)CC1Cc1ccccc1 (centres unmarked) [Compound 29] |  |  |  |  |  | 9.35 |
| O=C(c1cc(C(F)(F)F)cc(C(F)(F)F)c1)N1CCC(N2CCN(C(c3ccc(F)cc3)c3ccc(F)cc3)CC2)CC1Cc1ccccc1 (centres unmarked) [Compound 35] |  |  |  |  |  | 7.77 |
| O=C(c1cc(C(F)(F)F)cc(C(F)(F)F)c1)N1CCC(N2CCN(C(c3ccc(F)cc3)c3ccc(F)cc3)CC2)CC1Cc1ccccc1 (centres unmarked) [Compound 36] |  |  |  |  |  | 8.64 |
| O=C(CN1CCN(C2CCN(C(=O)c3cc(C(F)(F)F)cc(C(F)(F)F)c3)C(Cc3ccccc3)C2)CC1)Nc1ccccc1 (centres unmarked) [Compound 37] |  |  |  |  |  | 8.02 |
| O=C(c1cc(C(F)(F)F)cc(C(F)(F)F)c1)N1CCC(N2CCN(CCc3ccccc3)CC2)CC1Cc1ccccc1 (centres unmarked) [Compound 44] |  |  |  |  |  | 8.08 |
| COc1ccccc1NC(=O)CN1CCN(C2CCN(C(=O)c3cc(C(F)(F)F)cc(C(F)(F)F)c3)C(Cc3ccccc3)C2)CC1 (centres unmarked) [Compound 51] |  |  |  |  |  | 8.87 |
| O=C(c1cc(C(F)(F)F)cc(C(F)(F)F)c1)N1CCC(N2CCN(C(c3ccccc3)c3ccccc3)CC2)CC1Cc1ccccc1 (centres unmarked) [Compound 55] |  |  |  |  |  | 8.55 |
